Assay results published in ChEMBL document CHEMBL3508574 (2016).
Values belong to the compound of their own block, whether it stands above or below them.

How the values were obtained:
[1] = Mean AUC (0-t) of simvastatin following administration of simvastatin 80 mg orally disintegrating tablet in healthy human; type: ADME, organism-based; details: plasma, po
[2] = Mean AUC (0-t) of simvastatin following administration of reference product Zocor 80 mg tablet in healthy human; type: ADME, organism-based; details: plasma, po
[3] = Mean elimination rate constant of simvastatin following administration of reference product Zocor 80 mg tablet in healthy human; type: ADME, organism-based; details: plasma, po
[4] = Mean AUC (0-infinity) of simvastatin following administration of simvastatin 80 mg orally disintegrating tablet in healthy human; type: ADME, organism-based; details: plasma, po, read-out: AUC (0-infinity)
[5] = Cmax of total HMG-CoA reductase inhibitor (both lactone and open acid) following administration of simvastatin tablet at 80 mg dose level in hypercholesterolemic patients; type: ADME, organism-based, Plasma; details: human, in vivo, po
Canis lupus familiaris [6] = assay: Plasma protein binding of simvastatin following oral dose of simvastatin at 2 mg.Kg-1 level in dog; type: organism-based; design: dose 2 mg.Kg-1, dosed compound id 2.4681e+06, dosed compound name, dose level, study doses mg.Kg-1
[7] = AUC of total HMG-CoA reductase inhibitor (both lactone and open acid) following administration of simvastatin tablet at 80 mg dose level in hypercholesterolemic patients; type: ADME, organism-based, Plasma; details: human, in vivo, po
[8] = Mean elimination half-life of simvastatin following administration of reference product Zocor 80 mg tablet in healthy human; type: ADME, organism-based; details: plasma, po
[9] = Mean elimination rate constant of simvastatin following administration of simvastatin 80 mg orally disintegrating tablet in healthy human; type: ADME, organism-based; details: plasma, po
[10] = Cmax of total HMG-CoA reductase inhibitor (both lactone and open acid) following administration of simvastatin tablet at 40 mg dose level in hypercholesterolemic patients; type: ADME, organism-based, Plasma; details: human, in vivo, po
Homo sapiens [11] = assay: Plasma protein binding of simvastatin following oral dose of simvastatin at […] level in human; type: organism-based; design: dose 40 mg, dosed compound id 2.4681e+06, dosed compound name, dose level, study doses mg
[12] = Mean Cmax of simvastatin following administration of reference product Zocor 80 mg tablet in healthy human; type: ADME, organism-based; details: plasma, po
[13] = Mean elimination half-life of simvastatin following administration of simvastatin 80 mg orally disintegrating tablet in healthy human; type: ADME, organism-based; details: plasma, po
[14] = AUC of total HMG-CoA reductase inhibitor (both lactone and open acid) following administration of simvastatin tablet at 160 mg dose level in hypercholesterolemic patients; type: ADME, organism-based, Plasma; details: human, in vivo, po
[15] = Mean Cmax of simvastatin following administration of simvastatin 80 mg orally disintegrating tablet in healthy human; type: ADME, organism-based; details: plasma, po
[16] = Cmax of total HMG-CoA reductase inhibitor (both lactone and open acid) following administration of simvastatin tablet at 160 mg dose level in hypercholesterolemic patients; type: ADME, organism-based, Plasma; details: human, in vivo, po
[17] = AUC of total HMG-CoA reductase inhibitor (both lactone and open acid) following administration of simvastatin tablet at 40 mg dose level in hypercholesterolemic patients; type: ADME, organism-based, Plasma; details: human, in vivo, po
[18] = Absorption of simvastatin following oral administration of simvastatin in human; type: ADME, organism-based; details: in vivo
[19] = Absorption of simvastatin following oral administration of simvastatin in dog; type: ADME, organism-based, Canis lupus familiaris; details: in vivo
[20] = Absorption of simvastatin following oral administration of simvastatin in rat; type: ADME, organism-based; details: in vivo
[21] = Mean AUC (0-infinity) of simvastatin following administration of reference product Zocor 80 mg tablet in healthy human; type: ADME, organism-based; details: plasma, po, read-out: AUC (0-infinity)
[22] = Hepatic extraction of active beta-hydroxy acid form of simvastatin following oral administration of simvastatin in human; type: ADME, organism-based, Liver; details: in vivo
[23] = Mean elimination rate constant of simvastatin acid following administration of reference product Zocor 80 mg tablet in healthy human; type: ADME, organism-based, Plasma; details: in vivo, po
[24] = AUC of active HMG-CoA reductase inhibitor L-654,969 following administration of simvastatin tablet at 160 mg dose level in hypercholesterolemic patients; type: ADME, organism-based, Plasma; details: human, in vivo, po
[25] = Mean Cmax of simvastatin acid following administration of simvastatin 80 mg orally disintegrating tablet in healthy human; type: ADME, organism-based, Plasma; details: in vivo, po
[26] = Tmax of active HMG-CoA reductase inhibitor L-654,969 following administration of simvastatin tablet at 160 mg dose level in hypercholesterolemic patients; type: ADME, organism-based, Plasma; details: human, in vivo, po
[27] = Mean elimination half-life of simvastatin acid following administration of simvastatin 80 mg orally disintegrating tablet in healthy human; type: ADME, organism-based, Plasma; details: in vivo, po
[28] = Bioavailability of active beta-hydroxy acid form of simvastatin following oral administration of simvastatin in rat; type: ADME, organism-based; details: in vivo
[29] = Mean elimination half-life of simvastatin acid following administration of reference product Zocor 80 mg tablet in healthy human; type: ADME, organism-based, Plasma; details: in vivo, po
[30] = Bioavailability of active beta-hydroxy acid form of simvastatin following oral administration of simvastatin in human; type: ADME, organism-based; details: in vivo
[31] = Hepatic extraction of active beta-hydroxy acid form of simvastatin following oral administration of simvastatin in dog; type: ADME, organism-based, Canis lupus familiaris, Liver; details: in vivo
[32] = Tmax of active HMG-CoA reductase inhibitor L-654,969 following administration of simvastatin tablet at 40 mg dose level in hypercholesterolemic patients; type: ADME, organism-based, Plasma; details: human, in vivo, po
[33] = Mean Tmax of simvastatin acid following administration of simvastatin 80 mg orally disintegrating tablet in healthy human; type: ADME, organism-based, Plasma; details: in vivo, po
[34] = Mean Cmax of simvastatin acid following administration of reference product Zocor 80 mg tablet in healthy human; type: ADME, organism-based, Plasma; details: in vivo, po
[35] = Extrahepatic tissue penetration of active beta-hydroxy acid form of simvastatin following oral administration of simvastatin in human; type: ADME, organism-based; details: in vivo
[36] = Mean AUC (0-infinity) of simvastatin acid following administration of simvastatin 80 mg orally disintegrating tablet in healthy human; type: ADME, organism-based, Plasma; details: in vivo, po
[37] = Mean AUC (0-t) of simvastatin acid following administration of reference product Zocor 80 mg tablet in healthy human; type: ADME, organism-based, Plasma; details: in vivo, po
Homo sapiens [38] = assay: Plasma protein binding of simvastatin acid following oral dose of simvastatin at […] level in human; type: organism-based; design: dose 40 mg, dosed compound id 2.4681e+06, dosed compound name, dose level, study doses mg
[39] = Cmax of active HMG-CoA reductase inhibitor L-654,969 following administration of simvastatin tablet at 80 mg dose level in hypercholesterolemic patients; type: ADME, organism-based, Plasma; details: human, in vivo, po
[40] = Extensive biliary excretion of active beta-hydroxy acid form of simvastatin following oral administration of simvastatin in human; type: ADME, organism-based, Bile; details: in vivo
[41] = Mean AUC (0-t) of simvastatin acid following administration of simvastatin 80 mg orally disintegrating tablet in healthy human; type: ADME, organism-based, Plasma; details: in vivo, po
[42] = AUC of active HMG-CoA reductase inhibitor L-654,969 following administration of simvastatin tablet at 40 mg dose level in hypercholesterolemic patients; type: ADME, organism-based, Plasma; details: human, in vivo, po
[43] = Cmax of active HMG-CoA reductase inhibitor L-654,969 following administration of simvastatin tablet at 160 mg dose level in hypercholesterolemic patients; type: ADME, organism-based, Plasma; details: human, in vivo, po
[44] = Cmax of active HMG-CoA reductase inhibitor L-654,969 following administration of simvastatin tablet at 40 mg dose level in hypercholesterolemic patients; type: ADME, organism-based, Plasma; details: human, in vivo, po
[45] = Tmax of active HMG-CoA reductase inhibitor L-654,969 following administration of simvastatin tablet at 80 mg dose level in hypercholesterolemic patients; type: ADME, organism-based, Plasma; details: human, in vivo, po
[46] = AUC of active HMG-CoA reductase inhibitor L-654,969 following administration of simvastatin tablet at 80 mg dose level in hypercholesterolemic patients; type: ADME, organism-based, Plasma; details: human, in vivo, po
[47] = Mean elimination rate constant of simvastatin acid following administration of simvastatin 80 mg orally disintegrating tablet in healthy human; type: ADME, organism-based, Plasma; details: in vivo, po
[48] = Extensive biliary excretion of active beta-hydroxy acid form of simvastatin following oral administration of simvastatin in rat; type: ADME, organism-based, Bile; details: in vivo
[49] = Extrahepatic tissue penetration of active beta-hydroxy acid form of simvastatin following oral administration of simvastatin in rat; type: ADME, organism-based; details: in vivo
[50] = Hepatic extraction of active beta-hydroxy acid form of simvastatin following oral administration of simvastatin in rat; type: ADME, organism-based, Liver; details: in vivo
[51] = Bioavailability of active beta-hydroxy acid form of simvastatin following oral administration of simvastatin in dog; type: ADME, organism-based, Canis lupus familiaris; details: in vivo
[52] = Extensive biliary excretion of active beta-hydroxy acid form of simvastatin following oral administration of simvastatin in dog; type: ADME, organism-based, Canis lupus familiaris, Bile; details: in vivo
Canis lupus familiaris [53] = assay: Plasma protein binding of simvastatin acid following oral dose of simvastatin at 2 mg.Kg-1 level in dog; type: organism-based; design: dose 2 mg.Kg-1, dosed compound id 2.4681e+06, dosed compound name, dose level, study doses mg.Kg-1
[54] = Extrahepatic tissue penetration of active beta-hydroxy acid form of simvastatin following oral administration of simvastatin in dog; type: ADME, organism-based, Canis lupus familiaris; details: in vivo
[55] = Mean AUC (0-infinity) of simvastatin acid following administration of reference product Zocor 80 mg tablet in healthy human; type: ADME, organism-based, Plasma; details: in vivo, po
[56] = Mean Tmax of simvastatin acid following administration of reference product Zocor 80 mg tablet in healthy human; type: ADME, organism-based, Plasma; details: in vivo, po

AUC(0-t) [1]: 77.6 ng·h/mL
AUC(0-t) [2]: 83.9 ng·h/mL
k el [3]: 3.02e-05 s⁻¹
AUC(0-inf) [4]: 98.5 ng·h/mL
Cmax [5]: 165 ng.eq.ml-1
PPB (Canis lupus familiaris [6]): 97%
AUC [7]: 636 ng.eq.h.ml-1
half-life [8]: 10.1 h
k el [9]: 4.16e-05 s⁻¹
Cmax [10]: 75 ng.eq.ml-1
PPB (Homo sapiens [11]): 97%
Cmax [12]: 19.4 ng/mL
half-life [13]: 9.39 h
AUC [14]: 1533 ng.eq.h.ml-1
Cmax [15]: 18.3 ng/mL
Cmax [16]: 404 ng.eq.ml-1
AUC [17]: 316 ng.eq.h.ml-1
Absorption [18]: Simvastatin is well absorbed in humans
Absorption [19]: Simvastatin is well absorbed in dogs
Absorption [20]: Simvastatin is well absorbed in rats
AUC(0-inf) [21]: 102 ng·h/mL
Structure (SMILES): CCC(C)(C)C(=O)O[C@H]1C[C@@H](C)C=C2C=C[C@H](C)[C@H](CC[C@@H]3C[C@@H](O)CC(=O)O3)[C@H]21 [SIMVASTATIN]

Kel [23]: 0.1357 h⁻¹
AUC [24]: 668 ng.eq.h.ml-1
Cmax [25]: 4.5 ng/mL
Tmax [26]: 1.8 h
t1/2 [27]: 5.95 h
t1/2 [29]: 8.67 h
Tmax [32]: 1.8 h
Tmax [33]: 4.42 h
Cmax [34]: 3.88 ng/mL
AUC (0-infinity) [36]: 41.54 ng·h/mL
AUC(0-t) [37]: 36.61 ng·h/mL
PPB (Homo sapiens [38]): 93%
Cmax [39]: 50 ng.eq.ml-1
AUC(0-t) [41]: 37.67 ng·h/mL
AUC [42]: 120 ng.eq.h.ml-1
Cmax [43]: 138 ng.eq.ml-1
Cmax [44]: 21 ng.eq.ml-1
Tmax [45]: 1.8 h
AUC [46]: 263 ng.eq.h.ml-1
Kel [47]: 0.1554 h⁻¹
PPB (Canis lupus familiaris [53]): 93%
AUC (0-infinity) [55]: 47.76 ng·h/mL
Tmax [56]: 4.35 h
Structure (SMILES): CCC(C)(C)C(=O)O[C@H]1C[C@@H](C)C=C2C=C[C@H](C)[C@H](CC[C@@H](O)C[C@@H](O)CC(=O)O)[C@H]21 [TENIVASTATIN]
Hepatic extraction [22]: VALUE = Hepatic extraction of active beta-hydroxyacid form of simvastatin is high
F [28]: The active beta-hydroxyacid form of simvastatin is poorly bioavailable in rats
F [30]: The active beta-hydroxyacid form of simvastatin is poorly bioavailable in humans
Hepatic extraction [31]: VALUE = Hepatic extraction of active beta-hydroxyacid form of simvastatin is high
Compound recovery [35]: VALUE = Extrahepatic tissue penetration of active beta-hydroxyacid form of simvastatin is relatively poor
Compound recovery [40]: OUTCOME = Observed, VALUE = Biliary excretion of active beta-hydroxyacid form of simvastatin is extensive
Compound recovery [48]: OUTCOME = Observed, VALUE = Biliary excretion of active beta-hydroxyacid form of simvastatin is extensive
Compound recovery [49]: VALUE = Extrahepatic tissue penetration of active beta-hydroxyacid form of simvastatin is relatively poor
Hepatic extraction [50]: VALUE = Hepatic extraction of active beta-hydroxyacid form of simvastatin is high
F [51]: The active beta-hydroxyacid form of simvastatin is poorly bioavailable in dogs
Compound recovery [52]: OUTCOME = Observed, VALUE = Biliary excretion of active beta-hydroxyacid form of simvastatin is extensive
Compound recovery [54]: VALUE = Extrahepatic tissue penetration of active beta-hydroxyacid form of simvastatin is relatively poor
